In patent EP1377579B1 (Aventis Pharmaceuticals Inc., priority 2000, dated 2002):
Where a name gives a salt, the structure may show the parent alone. Read-outs that look alike come from different tables or passages of the source.

How the values were obtained:
[1] = molecular target: cdk2/cyclin E (Homo sapiens, UniProt P24941); test: Cyclin-dependent kinase assay, cdk2/cyclin E; settings: CDK2 IC50, nM, GST-pRb substrate, 10 µM ATP
[2] = tested on: MDA-MB-435; test: In vitro proliferation assay (MTT), MDA-MB-435; type: cell-based, human; settings: Homo sapiens
Method in brief: (§1)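 Following 3 days of compound treatment, MTT was added and the dye dissolved in DMSO for 570 nm absorbance; IC50s derived from these raw readings. Seeding density 1000 to 2500 cells/well depending on line, with overnight recovery before dosing.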

[3] = tested on: HL-60; test: In vitro proliferation assay (MTT), HL-60; type: cell-based; settings: Homo sapiens
Procedure: (§2) The proliferation of tumor cells can be measured using a tetrazolium salt-based assay known as the MTT (3-[4,5-Dimethylthiazol-2-yl]-2,5-diphenyltetrazolium bromide) assay. The proliferation test is performed essentially as described by Carmichael et al., Cancer Res. 47: 936-942, 1987. For the assay, the cell lines are plated onto 96 well plates at 1000 to 2500 cells/well (depending on the properties of the individual cell lines), left to attach and recover overnight. […] After 3 days, the cells are incubated with MTT dye (3-[4,5-Dimethylthiazol-2-yl]-2,5-diphenyltetrazolium bromide, Sigma # M5655, 10 mg/ml in Hank's Buffered Saline) to estimate the amount of live cells remaining vs. concentration for the test compounds. Specifically, MTT solution is added to a final concentration of […] and the plates incubated at 37 C for 2 to 4 hr. The MTT and culture medium is then removed from the cultures and 200 µl of DMSO is added to solubilize the dye from the cell layer. The absorbance at 570 nm is determined for each culture using a Spectramax plate reader (Molecular Devices).
(§3) IC50s were determined from the raw data from either the MTT or SRB assays.
(§4) All of the cell lines were obtained from American Type Tissue Collection, with the ATCC accession number in parentheticals. MCF-7 and MDA-MB-231 cells were grown in improved minimum essential medium (Biofluids) without phenol red, supplemented with 5 % fetal bovine serum, 0.01 mg/ml gentamicin and 3 mM L-glutamine. All of the other cell lines were grown in RPMI 1640 medium (Life Technologies) supplemented with 5 % fetal bovine serum, 0.01 mg/ml gentamicin and 3 mM L-glutamine TABLE 3

[4] = tested on: Jurkat; test: In vitro proliferation assay (MTT), Jurkat; type: cell-based; settings: Homo sapiens, read-out: Jurkat Leuk. (IC50 µM)
Procedure: as §2, §3, §4

[5] = tested on: NCI-H460; test: In vitro proliferation assay (MTT), NCI-H460; type: cell-based; settings: Homo sapiens
Procedure: as §2, §3, §4

[6] = tested on: Colo-205; test: In vitro proliferation assay (MTT), Colo-205; type: cell-based; settings: Homo sapiens
Procedure: as §2, §3

[7] = tested on: PC-3; test: In vitro proliferation assay (MTT), PC-3; type: cell-based, human; settings: Homo sapiens
Method in brief: as §1

[8] = molecular target: cdk4/cyclin D1 (Homo sapiens, UniProt P11802); test: Cyclin-dependent kinase assay, cdk4/cyclin D1; type: biochemical; settings: cyclin D1/cdk4; GST-pRb substrate, 10 µM ATP
[9] = molecular target: cdk1/cyclin B (Homo sapiens, UniProt P06493); test: Cyclin-dependent kinase assay, cdk1/cyclin B; settings: CDK1 IC50, nM, Histone H1, 10 µM ATP
[10] = MDA-MB-435, MTT assay, value (SD, n) where given, read-out: MB-435 Breast (IC50 µM)
[11] = HL-60, MTT assay, value (SD, n) where given, read-out: HL-60 Leuk. (IC50 µM)
[12] = MTT assay, value (SD, n) where given
[13] = NCI-H460, MTT assay, value (SD, n) where given, read-out: H-460 Lung (IC50 µM)
[14] = COLO 205, MTT assay, value (SD, n) where given, read-out: Colo-205 Colon (IC50 µM)
[15] = PC-3, MTT assay, value (SD, n) where given, read-out: PC-3 Prostate (IC50 µM)

Chain of cdk1/cyclin B (P06493 whole entry): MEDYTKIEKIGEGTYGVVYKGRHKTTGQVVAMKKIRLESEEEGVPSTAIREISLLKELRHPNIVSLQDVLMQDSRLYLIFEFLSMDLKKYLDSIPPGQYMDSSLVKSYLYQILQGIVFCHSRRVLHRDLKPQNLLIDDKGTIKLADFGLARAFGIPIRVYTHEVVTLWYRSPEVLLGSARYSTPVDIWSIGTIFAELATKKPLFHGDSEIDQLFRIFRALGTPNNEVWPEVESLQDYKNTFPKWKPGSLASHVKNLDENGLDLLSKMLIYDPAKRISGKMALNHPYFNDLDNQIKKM
Chain of cdk1/cyclin B (P14635 whole entry partner): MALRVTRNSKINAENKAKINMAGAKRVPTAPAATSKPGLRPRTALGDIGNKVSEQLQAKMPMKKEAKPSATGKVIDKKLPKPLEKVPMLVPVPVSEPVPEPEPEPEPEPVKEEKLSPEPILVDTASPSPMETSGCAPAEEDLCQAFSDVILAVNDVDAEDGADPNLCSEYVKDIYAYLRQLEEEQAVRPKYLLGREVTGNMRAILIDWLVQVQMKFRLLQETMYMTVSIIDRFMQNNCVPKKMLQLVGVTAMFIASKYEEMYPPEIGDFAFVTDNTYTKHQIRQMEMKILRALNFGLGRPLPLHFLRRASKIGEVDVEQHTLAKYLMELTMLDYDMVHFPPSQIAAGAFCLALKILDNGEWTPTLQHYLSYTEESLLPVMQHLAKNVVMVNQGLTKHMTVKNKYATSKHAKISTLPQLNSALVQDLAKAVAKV
Chain of cdk4/cyclin D1 (P11802 whole entry): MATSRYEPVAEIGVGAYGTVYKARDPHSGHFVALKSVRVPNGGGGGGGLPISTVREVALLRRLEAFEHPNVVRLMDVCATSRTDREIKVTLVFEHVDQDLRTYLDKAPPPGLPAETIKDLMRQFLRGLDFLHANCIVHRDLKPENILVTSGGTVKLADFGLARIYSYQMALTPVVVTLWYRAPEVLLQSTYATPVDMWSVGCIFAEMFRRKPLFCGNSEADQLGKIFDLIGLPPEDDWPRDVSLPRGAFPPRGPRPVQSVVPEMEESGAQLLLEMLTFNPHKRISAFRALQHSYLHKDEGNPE
Chain of cdk4/cyclin D1 (P24385 whole entry partner): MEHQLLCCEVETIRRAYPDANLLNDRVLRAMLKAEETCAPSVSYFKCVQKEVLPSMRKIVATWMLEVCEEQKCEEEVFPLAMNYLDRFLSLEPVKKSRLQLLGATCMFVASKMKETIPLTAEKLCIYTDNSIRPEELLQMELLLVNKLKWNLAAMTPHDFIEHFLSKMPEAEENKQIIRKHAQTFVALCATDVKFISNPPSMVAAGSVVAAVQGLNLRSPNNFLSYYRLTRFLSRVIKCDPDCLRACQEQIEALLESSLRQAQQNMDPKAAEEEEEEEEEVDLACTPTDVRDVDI

SMILES: N[C@H]1CC[C@H](Nc2nc(NC3CCN(C(=O)NC45CC6CC(CC(C6)C4)C5)CC3)c3ncn(C4CCCC4)c3n2)CC1 (relative stereo) [compound 181, trans-4-[2-(4-Amino-cyclohexylamino)-9-cyclopentyl-9H-purin-6-ylamino]-piperidine-1-carboxylic acid adamantan-1-ylamide dihydrochloride]
- IC50 [1]: 548 nM
- IC50 [2, 10]: 0.24 µM
- IC50 [3, 11]: 0.06 µM
- IC50 [4, 12]: 0.33 µM
- IC50 [5, 13]: 0.29 µM
- IC50 [6, 14]: 0.04 µM
- IC50 [7, 15]: 0.25 µM
- IC50 [8]: 1300 nM
- IC50 [9]: 67 nM

SMILES: CCCCOC(=O)N1CCC(Nc2nc(N[C@H]3CC[C@H](N)CC3)nc3c2ncn3C2CCCC2)CC1 [compound 92, trans-4-[2-(4-Amino-cyclohexylamino)-9-cyclopentyl-9H-purin-6-ylamino]-piperidine-1-carboxylic acid butyl ester dihydrochloride]
- IC50 [1]: 18 nM
- IC50 [2, 10]: 0.33 µM
- IC50 [3, 11]: 0.07 µM
- IC50 [4, 12]: 0.25 µM
- IC50 [5, 13]: 0.2 µM
- IC50 [6, 14]: 0.2 µM
- IC50 [7, 15]: 0.2 µM
- IC50 [8]: 2100 nM
- IC50 [9]: 45 nM

SMILES: CCOC(=O)N1CCC(Nc2nc(N[C@H]3CC[C@H](N)CC3)nc3c2ncn3C2CCCC2)CC1 [compound 93, trans-4-[2-(4-Amino-cyclohexylamino)-9-cyclopentyl-9H-purin-6-ylamino]-piperidine-1-carboxylic acid ethyl ester dihydrochloride]
- IC50 [1]: 5 nM
- IC50 [2, 10]: 0.25 µM
- IC50 [3, 11]: 0.07 µM
- IC50 [4, 12]: 0.16 µM
- IC50 [5, 13]: 0.2 µM
- IC50 [6, 14]: 0.18 µM
- IC50 [7, 15]: 0.26 µM
- IC50 [8]: 856 nM
- IC50 [9]: 46 nM

SMILES: N[C@H]1CC[C@H](Nc2nc(NC3CCN(C(=O)OCc4ccc([N+](=O)[O-])cc4)CC3)c3ncn(C4CCCC4)c3n2)CC1 [compound 94, trans-4-[2-(4-Amino-cyclohexylamino)-9-cyclopentyl-9H-purin-6-ylamino]-piperidine-1-carboxylic acid 4-nitro-benzyl ester dihydrochloride]
- IC50 [1]: 69 nM
- IC50 [2, 10]: 0.14 µM
- IC50 [3, 11]: 0.06 µM
- IC50 [4, 12]: 0.18 µM
- IC50 [5, 13]: 0.14 µM
- IC50 [6, 14]: 0.07 µM
- IC50 [7, 15]: 0.13 µM
- IC50 [8]: 827 nM
- IC50 [9]: 27 nM

SMILES: C=CCOC(=O)N1CCC(Nc2nc(N[C@H]3CC[C@H](N)CC3)nc3c2ncn3C2CCCC2)CC1 [compound 95, trans-4-[2-(4-Amino-cyclohexylamino)-9-cyclopentyl-9H-purin-6-ylamino]-piperidine-1-carboxylic acid allyl ester dihydrochloride]
- IC50 [1]: 23 nM
- IC50 [2, 10]: 0.24 µM
- IC50 [3, 11]: 0.06 µM
- IC50 [4, 12]: 0.18 µM
- IC50 [5, 13]: 0.2 µM
- IC50 [6, 14]: 0.1 µM
- IC50 [7, 15]: 0.21 µM
- IC50 [8]: 526 nM
- IC50 [9]: 75 nM

SMILES: N[C@H]1CC[C@H](Nc2nc(NC3CCN(C(=O)Oc4ccccc4[N+](=O)[O-])CC3)c3ncn(C4CCCC4)c3n2)CC1 [compound 99, trans-4-[2-(4-Amino-cyclohexylamino)-9-cyclopentyl-9H-purin-6-ylamino]-piperidine-1-carboxylic acid 2-nitro-phenyl ester dihydrochloride]
- IC50 [1]: 9 nM
- IC50 ([2]; MDA-MB-435, read-out: MB-435 Breast (IC50 µM)): 0.12 µM
- IC50 ([3]; HL-60, read-out: HL-60 Leuk. (IC50 µM)): < 0.02 µM
- IC50 [4]: 0.11 µM
- IC50 ([5]; NCI-H460, read-out: H-460 Lung (IC50 µM)): 0.16 µM
- IC50 ([6]; COLO 205, read-out: Colo-205 Colon (IC50 µM)): 0.05 µM
- IC50 ([7]; PC-3, read-out: PC-3 Prostate (IC50 µM)): 0.2 µM
- IC50 [8]: 1520 nM
- IC50 [9]: 33 nM

SMILES: C=CCCOC(=O)N1CCC(Nc2nc(N[C@H]3CC[C@H](N)CC3)nc3c2ncn3C2CCCC2)CC1 [compound 100, trans-4-[2-(4-Amino-cyclohexylamino)-9-cyclopentyl-9H-purin-6-ylamino]-piperidine-1-carboxylic acid but-3-enyl ester dihydrochloride]
- IC50 [1]: 50 nM
- IC50 [2, 10]: 0.25 µM
- IC50 [3, 11]: 0.05 µM
- IC50 [4, 12]: 0.19 µM
- IC50 [5, 13]: 0.17 µM
- IC50 [6, 14]: 0.11 µM
- IC50 [7, 15]: 0.22 µM
- IC50 [9]: 60 nM

SMILES: C#CCOC(=O)N1CCC(Nc2nc(N[C@H]3CC[C@H](N)CC3)nc3c2ncn3C2CCCC2)CC1 [compound 102, trans-4-[2-(4-Amino-cyclohexylamino)-9-cyclopentyl-9H-purin-6-ylamino]-piperidine-1-carboxylic acid prop-2-ynyl ester dihydrochloride]
- IC50 [1]: 42 nM
- IC50 [2, 10]: 0.19 µM
- IC50 [3, 11]: < 0.02 µM
- IC50 [4, 12]: 0.11 µM
- IC50 [5, 13]: 0.2 µM
- IC50 [6, 14]: 0.14 µM
- IC50 [7, 15]: 0.14 µM
- IC50 [8]: 926 nM
- IC50 [9]: 31 nM

SMILES: N[C@H]1CC[C@H](Nc2nc(NC3CCN(S(=O)(=O)c4cc(Cl)cc(Cl)c4O)CC3)c3ncn(C4CCCC4)c3n2)CC1 [compound 117, trans-2-{4-[2-(4-Amino-cyclohexylamino)-9-cyclopentyl-9H-purin-6-ylamino]-piperidine-1-sulfonyl}-4,6-dichloro-phenol dihydrochloride]
- IC50 [1]: 31 nM
- IC50 [2, 10]: 39 µM
- IC50 [3, 11]: 24.2 µM
- IC50 [4, 12]: 43.6 µM
- IC50 [7, 15]: 34.1 µM
- IC50 [8]: 558 nM
- IC50 [9]: 290 nM

SMILES: N[C@H]1CC[C@H](Nc2nc(NC3CCN(S(=O)(=O)c4ccc([N+](=O)[O-])cc4)CC3)c3ncn(C4CCCC4)c3n2)CC1 [compound 120, trans-N^2-(4-Amino-cyclohexyl)-9-cyclopentyl-N^6-[1-(4-nitro-benzenesulfonyl)-piperidin-4-yl]-9H-purine-2,6-diamine dihydrochloride]
- IC50 [2, 10]: 0.2 µM
- IC50 [3, 11]: < 0.02 µM
- IC50 [4, 12]: 0.19 µM
- IC50 [5, 13]: 0.27 µM
- IC50 [6, 14]: 0.1 µM
- IC50 [7, 15]: 0.22 µM

SMILES: N[C@H]1CC[C@H](Nc2nc(NC3CCN(S(=O)(=O)c4cccc5ccccc45)CC3)c3ncn(C4CCCC4)c3n2)CC1 [compound 123, trans-N^2-(4-Amino-cyclohexyl)-9-cyclopentyl-N^6-[1-(naphthalene-1-sulfonyl)-piperidin-4-yl]-9H-purine-2,6-diamine dihydrochloride]
- IC50 [1]: 54 nM
- IC50 [2, 10]: 0.26 µM
- IC50 [3, 11]: 0.15 µM
- IC50 [4, 12]: 0.22 µM
- IC50 [5, 13]: 0.29 µM
- IC50 [6, 14]: 0.07 µM
- IC50 [7, 15]: 0.2 µM
- IC50 [8]: 49 nM
- IC50 [9]: 62 nM

SMILES: N[C@H]1CC[C@H](Nc2nc(NC3CCN(C(=O)Nc4ccc(F)cc4F)CC3)c3ncn(C4CCCC4)c3n2)CC1 [compound 166, trans-4-[2-(4-Amino-cyclohexylamino)-9-cyclopentyl-9H-purin-6-ylamino]-piperidine-1-carboxylic acid (2,4-difluoro-phenyl)-amide dihydrochloride]
- IC50 [2, 10]: 0.03 µM
- IC50 [3, 11]: 0.01 µM
- IC50 [4, 12]: 0.07 µM
- IC50 [5, 13]: 0.08 µM
- IC50 [6, 14]: 0.02 µM
- IC50 [7, 15]: 0.06 µM

SMILES: N[C@H]1CC[C@H](Nc2nc(NC3CCN(C(=O)Nc4ccccc4Br)CC3)c3ncn(C4CCCC4)c3n2)CC1 [compound 168, trans-4-[2-(4-Amino-cyclohexylamino)-9-cyclopentyl-9H-purin-6-ylamino]-piperidine-1-carboxylic acid (2-bromo-phenyl)-amide dihydrochloride]
- IC50 [1]: 52 nM
- IC50 [2, 10]: 0.15 µM
- IC50 [3, 11]: 0.04 µM
- IC50 [5, 13]: 0.19 µM
- IC50 [6, 14]: 0.16 µM
- IC50 [7, 15]: 0.19 µM
- IC50 [8]: 111 nM
- IC50 [9]: 29 nM
